# From patent US4068070A, “α-Cyanoamine compounds and a process for producing the same” (Fuji Chemical Industry Co., Ltd., priority 1974, dated 1978)
# Assays:
# Format in all cases: in vivo, mongrel adult dogs
# [1] = system: aortic blood flow; assay: Effects on aortic blood flow
# Protocol: (§1) All experiments were made on male and female thoractomized mongrel adult dogs weighing about 10 kg. under anesthesia with pentobarbital sodium. Compounds A, D, E and F were suspended in 0.2% CMC solution, Compound B dissolved in hydrochloric acid solution (pH 6), and Compound C and active placebo being dissolved in physiological saline solution. Animals were administered the drug intravenously on brachiuma with either test compound or active placebo.
# (§2) Arterial blood pressure was measured by pressure transducer (Nippon Koden MPU-0.5) connected with the cannula inserted from exposed carotid artery into aorta. Aortic blood flow was determined by means of electromagnetic flow meter (Nippon Koden MF-5) mounted at the origin of the aorta. Coronary sinus out flow and coronary sinus oxygen tension were assessed by means of electromagnetic flow meter (Nippon Koden MF-5) and P02 macro electrode (Beokmann Moder 160-C), respectively using Morawitz cannulization technique. Heart rate was measured by cardiotachometer (Nippon Koden RT-2) synchronized with systolic blood pressure of aorta.
# [2] = system: arterial mean blood pressure; assay: Effects on arterial mean blood pressure
# Protocol: as §1, §2
# [3] = system: coronary sinus out flow; assay: Effects on coronary sinus out flow
# Protocol: as §1, §2
# [4] = system: heart rate; assay: Effects on heart rate
# Protocol: as §1, §2
# [5] = system: coronary sinus oxygen tension; assay: Effects on coronary sinus oxygen tension
# Protocol: as §1, §2
smiles,measurement,setting,value
COc1ccc(C(C#N)N2CCN(CC(=O)N3CCCC3)CC2)cc1OC (centres unmarked) [Compound C],"Changes (%) of basal values, aortic blood flow","[1]; 2.0 mg/kg i.v., 1 min",+2.3%
same,"Changes (%) of basal values, aortic blood flow","[1]; 2.0 mg/kg i.v., 5 min",+0.7%
same,"Changes (%) of basal values, aortic blood flow","[1]; 2.0 mg/kg i.v., 10 min",-1.5%
same,"Changes (%) of basal values, aortic blood flow","[1]; 2.0 mg/kg i.v., 20 min",-0.3%
same,"Changes (%) of basal values, aortic blood flow","[1]; 2.0 mg/kg i.v., 30 min",-0.1%
same,"Changes (%) of basal values, aortic blood flow","[1]; 2.0 mg/kg i.v., 40 min",0%
same,"Changes (%) of basal values, aortic blood flow","[1]; 2.0 mg/kg i.v., imm.",+1.1%
same,"Changes (%) of basal values, aortic blood flow","[1]; 6.0 mg/kg i.v., 1 min",+3.4%
same,"Changes (%) of basal values, aortic blood flow","[1]; 6.0 mg/kg i.v., 5 min",+1.1%
same,"Changes (%) of basal values, aortic blood flow","[1]; 6.0 mg/kg i.v., 10 min",0%
same,"Changes (%) of basal values, aortic blood flow","[1]; 6.0 mg/kg i.v., 20 min",-1.0%
same,"Changes (%) of basal values, aortic blood flow","[1]; 6.0 mg/kg i.v., 30 min",-2.0%
same,"Changes (%) of basal values, aortic blood flow","[1]; 6.0 mg/kg i.v., 40 min",-1.1%
same,"Changes (%) of basal values, aortic blood flow","[1]; 6.0 mg/kg i.v., imm.",+8.5%
same,"Changes (%) of basal values, aortic blood flow","[1]; 20.0 mg/kg i.v., 1 min",+6.2%
same,"Changes (%) of basal values, aortic blood flow","[1]; 20.0 mg/kg i.v., 5 min",+4.8%
same,"Changes (%) of basal values, aortic blood flow","[1]; 20.0 mg/kg i.v., 10 min",+1.3%
same,"Changes (%) of basal values, aortic blood flow","[1]; 20.0 mg/kg i.v., 20 min",-7.1%
same,"Changes (%) of basal values, aortic blood flow","[1]; 20.0 mg/kg i.v., 30 min",-11.9%
same,"Changes (%) of basal values, aortic blood flow","[1]; 20.0 mg/kg i.v., 40 min",-8.3%
same,"Changes (%) of basal values, aortic blood flow","[1]; 20.0 mg/kg i.v., imm.",+15.8%
same,Effects on aortic blood flow (in words),"[1]; i.v., anesthetized dogs","an increase in blood flow immediately after administration, followed by a decrease in blood flow"
same,"Changes (%) of basal values, arterial mean blood pressure","[2]; 2.0 mg/kg i.v., 1 min",+0.8%
same,"Changes (%) of basal values, arterial mean blood pressure","[2]; 2.0 mg/kg i.v., 5 min",0%
same,"Changes (%) of basal values, arterial mean blood pressure","[2]; 2.0 mg/kg i.v., 10 min",0%
same,"Changes (%) of basal values, arterial mean blood pressure","[2]; 2.0 mg/kg i.v., 20 min",0%
same,"Changes (%) of basal values, arterial mean blood pressure","[2]; 2.0 mg/kg i.v., 30 min",0%
same,"Changes (%) of basal values, arterial mean blood pressure","[2]; 2.0 mg/kg i.v., 40 min",0%
same,"Changes (%) of basal values, arterial mean blood pressure","[2]; 2.0 mg/kg i.v., imm.",-4.2%
same,"Changes (%) of basal values, arterial mean blood pressure","[2]; 6.0 mg/kg i.v., 1 min",-3.9%
same,"Changes (%) of basal values, arterial mean blood pressure","[2]; 6.0 mg/kg i.v., 5 min",-1.6%
same,"Changes (%) of basal values, arterial mean blood pressure","[2]; 6.0 mg/kg i.v., 10 min",-0.7%
same,"Changes (%) of basal values, arterial mean blood pressure","[2]; 6.0 mg/kg i.v., 20 min",-3.6%
same,"Changes (%) of basal values, arterial mean blood pressure","[2]; 6.0 mg/kg i.v., 30 min",-2.5%
same,"Changes (%) of basal values, arterial mean blood pressure","[2]; 6.0 mg/kg i.v., 40 min",-1.3%
same,"Changes (%) of basal values, arterial mean blood pressure","[2]; 6.0 mg/kg i.v., imm.",-12.1%
same,"Changes (%) of basal values, arterial mean blood pressure","[2]; 20.0 mg/kg i.v., 1 min",-17.1%
same,"Changes (%) of basal values, arterial mean blood pressure","[2]; 20.0 mg/kg i.v., 5 min",-18.8%
same,"Changes (%) of basal values, arterial mean blood pressure","[2]; 20.0 mg/kg i.v., 10 min",-22.2%
same,"Changes (%) of basal values, arterial mean blood pressure","[2]; 20.0 mg/kg i.v., 20 min",-27.2%
same,"Changes (%) of basal values, arterial mean blood pressure","[2]; 20.0 mg/kg i.v., 30 min",-28.0%
same,"Changes (%) of basal values, arterial mean blood pressure","[2]; 20.0 mg/kg i.v., 40 min",-26.1%
same,"Changes (%) of basal values, arterial mean blood pressure","[2]; 20.0 mg/kg i.v., imm.",-29.0%
same,Effects on arterial mean blood pressure (in words),"[2]; i.v., anesthetized dogs",hypotensive effects being proportioned to their doses which were of long duration
same,"Changes(%) of basal values, coronary sinus out flow","[3]; 2.0 mg/kg i.v., 1 min",+4.7%
same,"Changes(%) of basal values, coronary sinus out flow","[3]; 2.0 mg/kg i.v., 5 min",+4.9%
same,"Changes(%) of basal values, coronary sinus out flow","[3]; 2.0 mg/kg i.v., 10 min",+3.2%
same,"Changes(%) of basal values, coronary sinus out flow","[3]; 2.0 mg/kg i.v., 20 min",+2.1%
same,"Changes(%) of basal values, coronary sinus out flow","[3]; 2.0 mg/kg i.v., 30 min",+1.6%
same,"Changes(%) of basal values, coronary sinus out flow","[3]; 2.0 mg/kg i.v., 40 min",+1.1%
same,"Changes(%) of basal values, coronary sinus out flow","[3]; 2.0 mg/kg i.v., imm.",+17.8%
same,"Changes(%) of basal values, coronary sinus out flow","[3]; 6.0 mg/kg i.v., 1 min",+50.7%
same,"Changes(%) of basal values, coronary sinus out flow","[3]; 6.0 mg/kg i.v., 5 min",+28.6%
same,"Changes(%) of basal values, coronary sinus out flow","[3]; 6.0 mg/kg i.v., 10 min",+19.4%
same,"Changes(%) of basal values, coronary sinus out flow","[3]; 6.0 mg/kg i.v., 20 min",+18.2%
same,"Changes(%) of basal values, coronary sinus out flow","[3]; 6.0 mg/kg i.v., 30 min",+14.3%
same,"Changes(%) of basal values, coronary sinus out flow","[3]; 6.0 mg/kg i.v., 40 min",+7.6%
same,"Changes(%) of basal values, coronary sinus out flow","[3]; 6.0 mg/kg i.v., imm.",+58.2%
same,"Changes(%) of basal values, coronary sinus out flow","[3]; 20.0 mg/kg i.v., 1 min",+103.2%
same,"Changes(%) of basal values, coronary sinus out flow","[3]; 20.0 mg/kg i.v., 5 min",+92.1%
same,"Changes(%) of basal values, coronary sinus out flow","[3]; 20.0 mg/kg i.v., 10 min",+80.8%
same,"Changes(%) of basal values, coronary sinus out flow","[3]; 20.0 mg/kg i.v., 20 min",+56.2%
same,"Changes(%) of basal values, coronary sinus out flow","[3]; 20.0 mg/kg i.v., 30 min",+36.2%
same,"Changes(%) of basal values, coronary sinus out flow","[3]; 20.0 mg/kg i.v., 40 min",+30.0%
same,"Changes(%) of basal values, coronary sinus out flow","[3]; 20.0 mg/kg i.v., imm.",+101.9%
same,Effects on coronary sinus out flow (in words),"[3]; i.v., anesthetized dogs","a marked increasing effect on coronary sinus out flow, which was proportioned to doses thereof and of long duration"
same,"Changes(%) of basal values, heart rate","[4]; 2.0 mg/kg i.v., 1 min",+1.1%
same,"Changes(%) of basal values, heart rate","[4]; 2.0 mg/kg i.v., 5 min",+0.3%
same,"Changes(%) of basal values, heart rate","[4]; 2.0 mg/kg i.v., 10 min",-0.2%
same,"Changes(%) of basal values, heart rate","[4]; 2.0 mg/kg i.v., 20 min",0%
same,"Changes(%) of basal values, heart rate","[4]; 2.0 mg/kg i.v., 30 min",0%
same,"Changes(%) of basal values, heart rate","[4]; 2.0 mg/kg i.v., 40 min",0%
same,"Changes(%) of basal values, heart rate","[4]; 2.0 mg/kg i.v., imm.",-2.8%
same,"Changes(%) of basal values, heart rate","[4]; 6.0 mg/kg i.v., 1 min",+5.1%
same,"Changes(%) of basal values, heart rate","[4]; 6.0 mg/kg i.v., 5 min",+1.3%
same,"Changes(%) of basal values, heart rate","[4]; 6.0 mg/kg i.v., 10 min",-0.3%
same,"Changes(%) of basal values, heart rate","[4]; 6.0 mg/kg i.v., 20 min",-1.0%
same,"Changes(%) of basal values, heart rate","[4]; 6.0 mg/kg i.v., 30 min",0%
same,"Changes(%) of basal values, heart rate","[4]; 6.0 mg/kg i.v., 40 min",0%
same,"Changes(%) of basal values, heart rate","[4]; 6.0 mg/kg i.v., imm.",-5.3%
same,"Changes(%) of basal values, heart rate","[4]; 20.0 mg/kg i.v., 1 min",+0.8%
same,"Changes(%) of basal values, heart rate","[4]; 20.0 mg/kg i.v., 5 min",+1.6%
same,"Changes(%) of basal values, heart rate","[4]; 20.0 mg/kg i.v., 10 min",-1.0%
same,"Changes(%) of basal values, heart rate","[4]; 20.0 mg/kg i.v., 20 min",-1.4%
same,"Changes(%) of basal values, heart rate","[4]; 20.0 mg/kg i.v., 30 min",-28%
same,"Changes(%) of basal values, heart rate","[4]; 20.0 mg/kg i.v., 40 min",-2.0%
same,"Changes(%) of basal values, heart rate","[4]; 20.0 mg/kg i.v., imm.",-25.6%
same,Effects on heart rate (in words),"[4]; i.v., anesthetized dogs",a slight negative chronotropic effect
same,"Changes(%) of basal values, coronary sinus oxygen tension","[5]; 2.0 mg/kg i.v., 1 min",+5.4%
same,"Changes(%) of basal values, coronary sinus oxygen tension","[5]; 2.0 mg/kg i.v., 5 min",+2.8%
same,"Changes(%) of basal values, coronary sinus oxygen tension","[5]; 2.0 mg/kg i.v., 10 min",+2.0%
same,"Changes(%) of basal values, coronary sinus oxygen tension","[5]; 2.0 mg/kg i.v., 20 min",+1.1%
same,"Changes(%) of basal values, coronary sinus oxygen tension","[5]; 2.0 mg/kg i.v., 30 min",0%
same,"Changes(%) of basal values, coronary sinus oxygen tension","[5]; 2.0 mg/kg i.v., 40 min",0%
same,"Changes(%) of basal values, coronary sinus oxygen tension","[5]; 2.0 mg/kg i.v., imm.",+12.1%
same,"Changes(%) of basal values, coronary sinus oxygen tension","[5]; 6.0 mg/kg i.v., 1 min",+29.2%
same,"Changes(%) of basal values, coronary sinus oxygen tension","[5]; 6.0 mg/kg i.v., 5 min",+22.3%
same,"Changes(%) of basal values, coronary sinus oxygen tension","[5]; 6.0 mg/kg i.v., 10 min",+19.8%
same,"Changes(%) of basal values, coronary sinus oxygen tension","[5]; 6.0 mg/kg i.v., 20 min",+15.0%
same,"Changes(%) of basal values, coronary sinus oxygen tension","[5]; 6.0 mg/kg i.v., 30 min",+14.3%
same,"Changes(%) of basal values, coronary sinus oxygen tension","[5]; 6.0 mg/kg i.v., 40 min",+12.0%
same,"Changes(%) of basal values, coronary sinus oxygen tension","[5]; 6.0 mg/kg i.v., imm.",+36.9%
same,"Changes(%) of basal values, coronary sinus oxygen tension","[5]; 20.0 mg/kg i.v., 1 min",+96.2%
same,"Changes(%) of basal values, coronary sinus oxygen tension","[5]; 20.0 mg/kg i.v., 5 min",+86.7%
same,"Changes(%) of basal values, coronary sinus oxygen tension","[5]; 20.0 mg/kg i.v., 10 min",+70.4%
same,"Changes(%) of basal values, coronary sinus oxygen tension","[5]; 20.0 mg/kg i.v., 20 min",+63.7%
same,"Changes(%) of basal values, coronary sinus oxygen tension","[5]; 20.0 mg/kg i.v., 30 min",+60.9%
same,"Changes(%) of basal values, coronary sinus oxygen tension","[5]; 20.0 mg/kg i.v., 40 min",+51.5%
same,"Changes(%) of basal values, coronary sinus oxygen tension","[5]; 20.0 mg/kg i.v., imm.",+79.1%
same,Effects on coronary sinus oxygen tension (in words),"[5]; i.v., anesthetized dogs","a significant increase in coronary sinus oxygen tension, effect of which was of long duration"
